Laboratory results from patent publication US10131652B2, “Pyrimidinyloxy benzene derivatives as herbicides” (E. I. DU PONT DE NEMOURS AND COMPANY, priority 2014, dated 2018).

Key:
Test in all cases: Test D pre-/postemergence plant response
Type in all cases: in vivo
[1] = tested on: large (Lg) crabgrass (Digitaria sanguinalis); settings: Preemergence, scale 0 to 100 (0 no effect, 100 complete control)
Description: (§1) Seeds of plant species selected from blackgrass (Alopecurus myosuroides), Italian ryegrass (Lolium multiflorum), winter wheat (Triticum aestivum), galium (catchweed bedstraw, Galium aparine), corn (Zea mays), large (Lg) crabgrass (Digitaria sanguinalis), giant foxtail (Setaria faberii), johnsongrass (Sorghum halepense), lambsquarters (Chenopodium album), morningglory (Ipomoea coccinea), yellow nutsedge (Cyperus esculentus), pigweed (Amaranthus retroflexus), ragweed (common ragweed, Ambrosia elatior), soybean (Glycine max), bamyardgrass (Echinochloa crus-galli), oilseed rape (Brassica napus), waterhemp (common waterhemp, Amaranthus rudis), and velvetleaf (Abutilon theophrasti) were planted into a blend of loam soil and sand and treated preemergence with test chemicals formulated in a non-phytotoxic solvent mixture which included a surfactant. At the same time, plants selected from these crop and weed species and also kochia (Kochia scoparia), wild oat (Avena fatua), and chickweed (common chickweed, Stellaria media) were planted in pots containing Redi-Earth® planting medium (Scotts Company, 14111 Scottslawn Road, Marysville, Ohio 43041) comprising spaghnum peat moss, vermiculite, wetting agent and starter nutrients and treated with postemergence applications of test chemicals formulated in the same manner. Plants ranged in height from 2 to 18 cm (1- to 4-leaf stage) for postemergence treatments. Treated plants and controls were maintained in a greenhouse for 13 to 15 days, after which time all species were compared to controls and visually evaluated. Plant response ratings, summarized in Table D, are based on a scale of 0 to 100 where 0 is no effect and 100 is complete control. A dash (-) response means no test result.

[2] = tested on: morningglory (Ipomoea coccinea)
Description: as §1

[3] = tested on: oilseed rape (Brassica napus)
Description: as §1

[4] = tested on: pigweed (Amaranthus retroflexus)
Description: as §1

[5] = tested on: ragweed (common ragweed, Ambrosia elatior)
Description: as §1

soybean (Glycine max) = tested on: soybean (Glycine max)
Description: as §1

[6] = tested on: velvetleaf (Abutilon theophrasti)
Description: as §1

[7] = tested on: waterhemp (common waterhemp, Amaranthus rudis)
Description: as §1

[8] = tested on: winter wheat (Triticum aestivum)
Description: as §1

[9] = tested on: yellow nutsedge (Cyperus esculentus); settings: Preemergence; for Plant response rating, Nutsedge, Yellow: scale 0 to 100 (0 no effect, 100 complete control)
Description: as §1

[10] = Postemergence, 16 g ai/ha, scale 0 to 100 (0 no effect, 100 complete control)
[11] = Postemergence, 31 g ai/ha, scale 0 to 100 (0 no effect, 100 complete control)
[12] = Postemergence, 62 g ai/ha, scale 0 to 100, 0 no effect, 100 complete control
[13] = Postemergence, 125 g ai/ha, scale 0 to 100, 0 no effect, 100 complete control
[14] = Preemergence, 16 g ai/ha, scale 0 to 100 (0 no effect, 100 complete control)
[15] = Preemergence, 31 g ai/ha, scale 0 to 100 (0 no effect, 100 complete control)
[16] = Preemergence, 62 g ai/ha, scale 0 to 100 (0 no effect, 100 complete control)

SMILES: FC(F)(F)c1cc(-c2ccccc2Oc2ncc(Cl)cn2)ncn1 [Compound 54]
- Plant response rating, Crabgrass, Large ([1]; 31 g ai/ha): 75
- Plant response rating, Crabgrass, Large ([1]; 62 g ai/ha): 90
- Morningglory plant response rating [2, 10]: 5
- Morningglory plant response rating [2, 11]: 75
- Plant response rating, Morningglory [2, 12]: 75
- Plant response rating, Morningglory [2, 13]: 85
- Plant response rating (scale 0 to 100), Morningglory ([2]; Preemergence, 125 g ai/ha): 15
- Plant response rating, Morningglory [2, 14]: 0
- Plant response rating, Morningglory [2, 15]: 0
- Plant response rating, Morningglory [2, 16]: 5
- Oilseed Rape plant response rating [3, 10]: 5
- Oilseed Rape plant response rating [3, 11]: 20
- Plant response rating, Oilseed Rape [3, 12]: 50
- Plant response rating, Oilseed Rape [3, 13]: 60
- Plant response rating (scale 0 to 100), Oilseed Rape ([3]; Preemergence, 125 g ai/ha): 100
- Plant response rating, Oilseed Rape [3, 14]: 60
- Plant response rating, Oilseed Rape [3, 15]: 85
- Plant response rating, Oilseed Rape [3, 16]: 100
- Pigweed plant response rating [4, 10]: 60
- Pigweed plant response rating [4, 11]: 80
- Plant response rating, Pigweed [4, 12]: 80
- Plant response rating, Pigweed [4, 13]: 60
- Plant response rating (scale 0 to 100), Pigweed ([4]; Preemergence, 125 g ai/ha): 100
- Plant response rating, Pigweed [4, 14]: 5
- Plant response rating, Pigweed [4, 15]: 100
- Plant response rating, Pigweed [4, 16]: 100
- Ragweed plant response rating [5, 10]: 0
- Ragweed plant response rating [5, 11]: 0
- Plant response rating, Ragweed [5, 12]: 5
- Plant response rating, Ragweed [5, 13]: 35
- Plant response rating (scale 0 to 100), Ragweed ([5]; Preemergence, 125 g ai/ha): 35
- Plant response rating, Ragweed [5, 14]: 10
- Plant response rating, Ragweed [5, 15]: 40
- Plant response rating, Ragweed [5, 16]: 10
- Soybean plant response rating (soybean (Glycine max); [10]): 15
- Soybean plant response rating (soybean (Glycine max); [11]): 10
- Plant response rating, Soybean (soybean (Glycine max); [12]): 50
- Plant response rating, Soybean (soybean (Glycine max); [13]): 80
- Plant response rating (scale 0 to 100), Soybean (soybean (Glycine max); Preemergence, 125 g ai/ha): 20
- Plant response rating, Soybean (soybean (Glycine max); [14]): 0
- Plant response rating, Soybean (soybean (Glycine max); [15]): 10
- Plant response rating, Soybean (soybean (Glycine max); [16]): 20
- Velvetleaf plant response rating [6, 10]: 0
- Velvetleaf plant response rating [6, 11]: 5
- Plant response rating, Velvetleaf [6, 12]: 40
- Plant response rating, Velvetleaf [6, 13]: 40
- Plant response rating (scale 0 to 100), Velvetleaf ([6]; Preemergence, 125 g ai/ha): 100
- Plant response rating, Velvetleaf [6, 14]: 15
- Plant response rating, Velvetleaf [6, 15]: 70
- Plant response rating, Velvetleaf [6, 16]: 85
- Waterhemp plant response rating [7, 10]: 45
- Waterhemp plant response rating [7, 11]: 60
- Plant response rating, Waterhemp [7, 12]: 80
- Plant response rating, Waterhemp [7, 13]: 75
- Plant response rating (scale 0 to 100), Waterhemp ([7]; Preemergence, 125 g ai/ha): 100
- Plant response rating, Waterhemp [7, 14]: 25
- Plant response rating, Waterhemp [7, 15]: 85
- Plant response rating, Waterhemp [7, 16]: 100
- Wheat plant response rating [8, 10]: 0
- Wheat plant response rating [8, 11]: 0
- Plant response rating, Wheat [8, 12]: 0
- Plant response rating, Wheat [8, 13]: 5
- Plant response rating (scale 0 to 100), Wheat ([8]; Preemergence, 125 g ai/ha): 0
- Plant response rating, Wheat [8, 14]: 0
- Plant response rating, Wheat [8, 15]: 0
- Plant response rating, Wheat [8, 16]: 0
- Plant response rating (scale 0 to 100), Nutsedge, Yellow ([9]; 125 g ai/ha): 15
- Plant response rating, Nutsedge, Yellow ([9]; 16 g ai/ha): 0
- Plant response rating, Nutsedge, Yellow ([9]; 31 g ai/ha): 0
- Plant response rating, Nutsedge, Yellow ([9]; 62 g ai/ha): 0
